According to article PMC9863002, “Amino Derivatives of Diaryl Pyrimidines and Azolopyrimidines as Protective Agents against LPS-Induced Acute Lung Injury” (Molecules, 2023):

Assays:
MTT cytotoxicity study = type: cell-based, C57bl/6j mice; details: male, C57bl/6j, mouse; peritoneal macrophages, 24 h incubation
Description: (§1) Peritoneal macrophages (PM) were isolated from the peritoneal exudate of 30 male C57bl/6j mice. To accumulate PM, 1 mL of 3% peptone solution was injected intraperitoneally. After 3 days, the mice were euthanized by cervical dislocation. Cells of peritoneal exudate were obtained by aseptic washing of the abdominal cavity with 5 mL of sterile Hanks’s solution (+4–6 °C) without calcium and magnesium ions. The total number and viability of cells were assessed in a Goryaev counting chamber (Russia) with a 0.4% trypan blue staining (Sigma-Aldrich, St. Louis, MO, USA). The cell concentration was adjusted to 1.0 × 10^6 cells/mL in DMEM (Gibco, Waltham, MA, USA) supplemented with 2 mM L-glutamine (Gibco), 10% heat-inactivated fetal bovine serum (BioClot, Bavaria, Germany), 100 U/mL penicillin, and […] streptomycin (Gibco) and plated 200 µL/well in 96-well transparent plates (SPL Life Sciences Co., Ltd., Pocheon-si, Republic of Korea). After 2 h at 37 °C in a humidified atmosphere with 5% CO2, the wells were washed to remove non-adherent cells. After 24 h of incubation, 20 µL of the supernatants were substituted with 20 µL of solutions of test compounds, followed by E. coli O127:B8 LPS (100 ng/mL final concentration) after 30 min. The experiments were run in 3 independent replicates.
(§2) The activity of lactate dehydrogenase (LDH) in a cell culture medium served as a marker of membrane permeability and cell death. Aliquots of supernatants were taken after 24 h of inoculation with test compounds, mixed with 250 µL of […] NADH solution in 54 mM phosphate-buffered saline (pH 7.5). Then, 25 µL of a 6.48 mM pyruvate solution was added to the mixture. The optical density was followed at a wavelength of 340 nm for 20 min. The MTT test was performed 24 h after incubations of cells with tested compounds. Briefly, 20 µL of MTT solution was added to each well and incubated at 37 °C in a humidified atmosphere containing 5% CO2 for 4 h. The culture medium was removed, the cells were lysed, and formazan crystals were dissolved in 150 µL DMSO. The plates were shaken at room temperature for 10 min, and the optical density was measured in a microplate reader Infinite M200 PRO (Tecan, Grödig, Austria) at a wavelength of 565 nm.

peritoneal macrophages = test: MTT cytotoxicity study; type: cell-based, C57bl/6j mice
Description: as §1, §2

[1] = tested on: phagocytic activity of C57bl/6j peritoneal macrophages; test: Phagocytosis assay (yeast); type: cell-based, C57bl/6j mice; details: 72 h of incubation
Description: Peritoneal macrophages of C57bl/6j mice were cultured in a 24-well plate at a volume of 500 µL/well (1 × 10^5 cells/mL) for 24 h. Test compounds or DMSO were added to wells in triplicate followed by 50 µL of 1% yeast suspension, and the plates were incubated for 40 min. After 24 or 72 h, the medium was removed. The cells were fixed with May–Grunwald methanol dye and stained with Azur–Eosin in Romanovsky’s modification for 45 min at room temperature, washed, air-dried, and analyzed using a microscope Mikmed-6 (Russia), equipped with a digital camera. The study was performed in three technical replicates and two series; 100 macrophages were processed in each sample to count the captured yeast cells. Macrophage spreading was assessed as a number of pseudopodia.

[2] = tested on: NO synthesis in LPS-stimulated primary murine peritoneal macrophages; test: Inhibition of NO synthesis in LPS-stimulated macrophages (Griess); type: cell-based, C57bl/6j mice; details: Mus musculus, Peritoneal macrophage; LPS-stimulated (100 ng/mL E. coli LPS) peritoneal macrophages, supernatants after 22 h; n.a. = not active
Description: as §1
The accumulation of the nitrite anion (a stable end product of NO decomposition) in supernatants was determined using a standard Griess reagent. Briefly, 50 µL of supernatants were collected 22 h after incubation of PM, and the test and control compounds were mixed with 50 µL of 1% sulfonamide in 2.5% H3PO4 and 50 µL of 0.1% N-(1-naphthyl) ethylenediamine in 2.5% H3PO4. After incubation at 23 °C for 10 min in an orbital shaker, the optical density was determined at a wavelength of 550 nm with a microplate reader Infinite M200 PRO (Tecan, Grödig, Austria).

[3] = tested on: IL-6 release in LPS-stimulated primary murine peritoneal macrophages; test: Inhibition of IL-6 release in LPS-stimulated macrophages (ELISA); type: cell-based, C57bl/6j mice; details: Mus musculus, Peritoneal macrophage; LPS-stimulated (100 ng/mL E. coli LPS) peritoneal macrophages; n.a. = not active
Description: as §1
(§3) The cell supernatant was collected and centrifuged at 1000× g for 20 min in a 2–16 PK centrifuge (Sigma, Osterode am Harz, Germany). The concentrations of IL-6 and TNF-alpha were determined by ELISA using commercial kits (Cloud-clone, Houston, TX, USA) with a microplate reader Infinite M200 PRO (Tecan, Grödig, Austria).

[4] = tested on: LPS-induced acute lung injury in C57BL/6J mice; test: LPS-induced acute lung injury: histological study; type: in vivo; details: 24 h after LPS; for Mean Injury Score (semi-quantitative morphological score of lung tissue damage): score 0-3, dexamethasone 5 mg/kg, 6e 30 mg/kg i.p. 1 h before oropharyngeal LPS
Description: (§4) The randomization of C57BL/6J mice was performed by body weight and motor activity in an open field test. […] The control animals received an equal volume of the vehicle. After 1 h, the mice were anesthetized with isoflurane inhalation until their breathing rate was decreased. The mice were suspended by the front incisors on an inclined surgical table, the tongue was pulled out with narrow curved tweezers, and 1 mg/mL of E. coli O127:B8 LPS (Sigma-Aldrich, St. Louis, MO, USA) in 1 mL/kg sterile saline was instilled into the back of the oropharynx. Intact control animals received an equal volume of sterile saline similarly.
(§5) The mice were anesthetized with 500 mg/kg chloral hydrate (Sigma-Aldrich, St. Louis, MO, USA) intraperitoneally 24 h after LPS administration. Blood was taken by intracardiac puncture in test tubes with heparin. The blood samples were centrifuged at 1000× g and 4 °C for 15 min on a 2–16 PK centrifuge (Sigma, Germany), and plasma was separated and stored at −80 °C until the assay. Thoracotomy was performed, the ligature was applied to the left bronchus and the trachea was cannulated with a 20 G needle. The right lung was washed twice with 0.7 mL of warm sterile saline. After combining aliquots, the bronchoalveolar lavage (BAL) was centrifuged at 800× g and 4 °C for 10 min. The supernatant was separated and stored at −80 °C until the assay. The residual cell pellet was resuspended in 50 µL of PBS for further study. The left lung was washed in saline and placed in 10% buffered formalin for morphological evaluation.
The sections were examined under a light microscope (Zeiss, Germany) by a double-blind method.

[5] = tested on: LPS-induced acute lung injury in C57BL/6J mice; test: LPS-induced acute lung injury: biochemical markers of inflammation (IL-6, lung permeability index); type: in vivo; details: 6e 30 mg/kg i.p., 24 h after LPS
Description: as §3, §4, §5
The concentration of total protein in BAL supernatants was determined spectrophotometrically with the pyrogallol red method, and the protein in the blood plasma was determined with the biuret method using commercial kits (Vital, Saint Petersburg, Russia) and bovine serum albumin as the standard. The lung permeability index was calculated as the protein concentration in the BAL to plasma ratio.

[6] = tested on: LPS-induced acute lung injury in C57BL/6J mice; test: LPS-induced acute lung injury: leukocyte markers in blood, BAL and spleen; type: in vivo; details: dexamethasone 5 mg/kg, 6e 30 mg/kg i.p.; 24 h after LPS
Description: as §4, §5
The total number of leukocytes in heparinized blood was determined after staining with methylene blue in Goryaev’s counting chamber at ×100 magnification. Smears of blood and BAL cell pellets were air-dried, fixed according to May–Grunwald for 3 min, and stained according to Romanowsky–Giemsa. After 30 min, the slides were washed, air-dried, and examined with an immersion objective (×1000 total magnification). On each slide, a total of at least 100 cells were calculated.

[7] = tested on: LPS-induced acute lung injury in C57BL/6J mice; test: LPS-induced acute lung injury: open field test; type: in vivo; details: 6e 30 mg/kg i.p., within 24 h after LPS; for motor activity in the open field test, in words: dexamethasone 5 mg/kg
Description: as §4
The animals were placed in the center of a round open field with an arena of 44 cm diameter and 32 cm wall height under 300 lux lighting. During 5 min of observation, horizontal motor activity, vertical motor activity, time spent in the central part, the number of exits to the central part, and exploratory activity parameters were recorded. Body temperature was determined rectally.

Cc1nc(-c2ccccc2)cc(-c2ccccc2N)n1 [Compound 6a]
CC50 at 24 h (MTT cytotoxicity study): > 100 µM
cytotoxicity in the MTT test, in words (peritoneal macrophages): pronounced cytotoxicity
macrophage phagocytic activity (number of phagocytes), in words [1]: preserve macrophage phagocytic activity
phagocytic capacity (number of yeast cells per macrophage), in words [1]: significantly suppressed macrophage phagocytic capacity
decrease of the mean number of phagocytosed particles ([1]; vs DMSO): 35%

Cc1nc(-c2ccccc2)cc(-c2ccc(N)cc2)n1 [Compound 6b]
CC50 at 24 h (MTT cytotoxicity study): 65.6 µM
IC50 [2]: 21.1 µM
IC50 [3]: 2.18 µM

Cc1nc(-c2ccc(N)cc2)cc(-c2ccc(F)cc2)n1 [Compound 6c]
CC50 at 24 h (MTT cytotoxicity study): > 100 µM
IC50 [2]: 0.37 µM
IC50 [3]: 34.9 µM

Cc1nc(-c2ccc(N)cc2)cc(-c2cccc(N)c2)n1 [Compound 6d]
CC50 at 24 h (MTT cytotoxicity study): > 100 µM

Cc1nc(-c2ccc(N)cc2)cc(-c2ccc(N)cc2)n1 [Compound 6e]
histological inflammatory lesions of the lung, in words ([4]; 6e 30 mg/kg i.p., H&E): limited inflammatory lesions
Mean Injury Score (semi-quantitative morphological score of lung tissue damage) [4]: 1.83
lung permeability index, in words ([5]; BAL to plasma protein ratio): preserving the vascular permeability at intact levels
markers of inflammation and lung damage (IL-6 in BAL and plasma, alveolar vessel permeability), in words ([5]; dexamethasone 5 mg/kg): normalized these markers of inflammation and lung damage
plasma IL-6 concentration, in words ([5]; dexamethasone 5 mg/kg): normalized it to intact levels
CC50 at 24 h (MTT cytotoxicity study): > 100 µM
IC50 [2]: 16.2 µM
IC50 [3]: 18.4 µM
BAL: ratio of segmented neutrophils to monocytes, in words [6]: amelioration of this ratio
spleen lymphocytes (systemic immunosuppression), in words [6]: preserved normal content of spleen lymphocytes
phagocytic capacity (number of yeast cells per macrophage), in words [1]: retains a nearly normal phagocytic capacity
decrease of the phagocytic index ([1]; vs DMSO): 32%
exploratory behavior in the open field test, in words [7]: improved
motor activity in the open field test, in words [7]: increased the motor activity of mice but was inferior to dexamethasone activity

Nc1ccc(-c2cc(-c3ccc(N)cc3)nc(N)n2)cc1 [Compound 6f]
CC50 at 24 h (MTT cytotoxicity study): 96.1 µM
IC50 [2]: 42.9 µM

CSc1nc(-c2ccc(N)cc2)cc(-c2ccc(N)cc2)n1 [Compound 6g]
CC50 at 24 h (MTT cytotoxicity study): > 100 µM
IC50 [2]: 0.12 µM
IC50 [3]: > 100 µM

Nc1ccc(-c2cc(-c3ccc(F)cc3)n3ncnc3n2)cc1 [Compound 7a]
CC50 at 24 h (MTT cytotoxicity study): > 100 µM
IC50 [2]: 0.37 µM
IC50 [3]: 14.9 µM

Nc1ccc(-c2cc(-c3cccc(N)c3)n3ncnc3n2)cc1 [Compound 7b]
CC50 at 24 h (MTT cytotoxicity study): > 100 µM
IC50 [2]: 45.3 µM
IC50 [3]: 31.4 µM

Nc1ccc(-c2cc(-c3ccc(N)cc3)n3ncnc3n2)cc1 [Compound 7c]
CC50 at 24 h (MTT cytotoxicity study): 47.1 µM
cytotoxicity in the MTT test, in words (peritoneal macrophages): pronounced cytotoxicity
IC50 [2]: 15.2 µM
IC50 [3]: 2.2 µM
macrophage phagocytic activity (number of phagocytes), in words [1]: preserve macrophage phagocytic activity
phagocytic capacity (number of yeast cells per macrophage), in words [1]: significantly suppressed macrophage phagocytic capacity
decrease of the mean number of phagocytosed particles ([1]; vs DMSO): 63%

CCOC(=O)C1=C(C)NC(C)=NC1c1cccc(N)c1 (stereo not drawn) [Compound 10a]
CC50 at 24 h (MTT cytotoxicity study): > 100 µM
IC50 [2]: 323 µM

CCOC(=O)C1=C(C)NC(C)=NC1c1ccc(N)cc1 (stereo not drawn) [Compound 10b]
CC50 at 24 h (MTT cytotoxicity study): 178 µM
IC50 [2]: 71.8 µM

CCOC(=O)C1=C(C)Nc2ncnn2C1c1cccc(N)c1 (stereo not drawn) [Compound 11a]
CC50 at 24 h (MTT cytotoxicity study): > 100 µM

CCOC(=O)C1=C(C)Nc2ncnn2C1c1ccc(N)cc1 (stereo not drawn) [Compound 11b]
CC50 at 24 h (MTT cytotoxicity study): > 100 µM

C[C@@H]1C[C@H]2[C@@H]3CCC4=CC(=O)C=C[C@]4(C)[C@@]3(F)[C@@H](O)C[C@]2(C)[C@@]1(O)C(=O)CO [Dexamethasone, reference compound]
Mean Injury Score (semi-quantitative morphological score of lung tissue damage) [4]: 1.33
plasma IL-6 concentration, in words ([5]; dexamethasone 5 mg/kg): normalized it to intact levels
CC50 at 24 h (MTT cytotoxicity study): 97.4 µM
IC50 [2]: 23.4 µM
IC50 [3]: 2.5 µM
blood: recruitment of segmented neutrophils at the expense of lymphocytes, in words [6]: corrected by dexamethasone
spleen lymphocytes (systemic immunosuppression), in words [6]: significantly decreased proliferation of spleen lymphocytes
macrophage phagocytic activity (number of phagocytes), in words [1]: reducing both the number of phagocytes
phagocytic capacity (number of yeast cells per macrophage), in words [1]: reducing both the number of phagocytes and their phagocytic capacity
motor activity in the open field test, in words [7]: corrected by dexamethasone
